# Data from patent US10519177B2, “Heterocyclic compounds and uses thereof” (Plexxikon Inc., priority 2013, dated 2019).
# How the values were obtained:
# MV-4-11 cells = experiment: Oncology cell growth assay MV-4-11 (CellTiter Glo); type: cell-based; conditions: Homo sapiens, MV4-11, 72 h; MV-4-11, 3d growth; read-out: Cell activity (IC50 μM) MV-4-11 3d-Growth
# Summary of the method: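 MV-4-11 AML cells (MLL-AF4), 3000 per well, exposed to 8-point 1:3 compound titration from 10 μM top concentration (0.2% DMSO) for 72 h. Viability by CellTiter Glo luminescence, normalized to DMSO controls; pIC50 from four-parameter curve fit.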
# BRD4-BD12 (1-477) = BRD4-BD12 (1-477) (Homo sapiens (Human), UniProt O60885); experiment: Alphascreen binding assay BRD4-BD12; conditions: BRD4(1 2) H4; read-out: Biochemical activity (IC50 μM) BRD4(1 2) H4
# Description: Binding of compounds of formula (I) with bromodomain 2, 3 4 was assessed using Alphascreen binding assay. The inhibition of the interaction between bromodomain and its acetylated target protein (Filippakopoulos P et al. 2012) was measured quantitatively using recombinant BRD proteins, an acetylated Histone 4 peptide and AlphaScreen™ technology. In absence of inhibition the BRD protein bound to AlphaScreen™ nickel chelate acceptor beads can interact with the acetylated Histone 4 peptide which is immobilized by the AlphaScreen™ Streptavidin coated beads. This interaction brings donor and acceptor beads in proximity. The close proximity allows the singlet oxygen produced by laser excitation of the donor beads to reach the acceptor beads and generate a luminescence signal.
# Recombinant human bromodomains containing the N-terminal bromodomain (BRD2-BD1 (71-194), BRD3-BD1 (24-144) and BRD4-BD1 (44-164)) or dual bromodomains (BRD4-BD12 (1-477), BRD4-BD12 (1-472)) were prepared and purified as described in protein expression and purification session. The peptide is human Histone H41-21K5AcK8AcK12AcK16Ac-Biotin (Anaspec CA, USA).
# Protocol for BRD2, BRD3 and BRD4 assay: All components are prepared in buffer composed of 50 mM HEPES pH 7.5, 100 mM NaCl, 0.01% bovine serum albumin (“BSA”), 0.01% Triton X-100, 2 mM dithiothreitol (“DTT”). 7 μL of Bromodomain protein and 7 μL of peptide are added to wells containing 1 μL of various concentrations of test compounds of formula (I) or DMSO vehicle in an Alphaplate (PerkinElmer GA, USA) and incubated for 1 hour at room temperature. 4 μL donor and acceptor bead mixture is then added with final concentrations of 7.5 μg/ml. 30 minutes after bead addition, Alpha signal is read on the Envision spectrometer (λEx 680 nm, λEm 520-620 nm). Final concentrations of bromodomain proteins and peptide are as shown below.
# All data was normalized to the mean of 16 high and 16 low control wells on each plate. A four parameter curve fit of the following formula was then applied: Y=a+(b−a)/(1+(x/c)^d) Where ‘a’ is the minimum, ‘b’ is the maximum, ‘c’ is the pIC50 and ‘d’ is the Hill slope. Protein Expression and Purification
# Recombinant human bromodomains containing the N-terminal bromodomain (BRD2-BD1 (71-194), BRD3-BD1 (24-144) and BRD4-BD1 (44-164)) or dual bromodomains (BRD4-BD12 (1-477), BRD4-BD12 (1-472)) were expressed in E. coli cells (in a modified pET vector) with an N-terminal six-His tag and purified using a combination of both IMAC (Ni-affinity) and size exclusion chromatography steps.
# Recombinant BRD proteins were expressed using the E. coli strain BL21-CodonPlus (DE3) (Agilent Technologies CA, USA). Cells were grown in Terrific Broth (TB) media to an OD600 of 1.2 at 37° C. at which temperature was reduced to 25° C., protein was induced with 1.0 mM ispropyl-β-D-thiogalactopyranoside (“IPTG”) for 12-18 hours and harvested by centrifugation at 8000×g for 20 minutes. Cells were re-suspended in 0.1M K2PO4 pH 8.0, 250 mM NaCl, 10% Glycerol, 0.75% NP-40, 25 mM Imidazole, 5 mM beta-mercaptoethanol (“BME”) with 0.2 mg/ml Lysosyme, 2.0 mM phenylmethanesulfonyl fluoride (“PMSF”), 25 μg/ml DNAse I, incubated on ice for 30 minutes and lyzed with a cell disruptor (MicroFluidics MA, USA). The lysate was clarified by centrifugation at 20,000×g for 2 hours. The protein was captured with Ni-NTA resin (Life Technologies, USA). Contaminating proteins were washed off with 25 mM Tris-HCl pH 8.3, 250 mM NaCl, 12% Glycerol and 50 mM Imidazole. Following 3× wash steps, protein was eluted step wise using a 50 mM HEPES pH 7.5, 500 mM NaCl and 400 mM Imidazole. The protein was further purified using Gel Filtration column 26/600 Superdex 200 (GE Biosciences NJ, USA) in 50 mM HEPES pH 7.5, 250 mM NaCl. The protein was aliquoted and flash-frozen in liquid Nitrogen.
Structure (SMILES),IC50 (MV-4-11 cells),IC50 (BRD4-BD12 (1-477))
"Cc1noc(C)c1-c1cnc2c(-c3ccc(C(=O)O)cc3)cn(C(c3ccccn3)C3CCOCC3)c2c1 (centres unmarked) [P-1036, 4-[6-(3,5-dimethylisoxazol-4-yl)-1-[2-pyridyl(tetrahydropyran-4-yl)methyl]pyrrolo[3,2-b]pyridin-3-yl]benzoic acid]",< 1 µM,< 1 µM
"Cc1noc(C)c1-c1cnc2c(-c3ccc(C#N)nc3)cn(CC3(C)CCOCC3)c2c1 [P-0944, 5-[6-(3,5-dimethylisoxazol-4-yl)-1-[(4-methyltetrahydropyran-4-yl)methyl]pyrrolo[3,2-b]pyridin-3-yl]pyridine-2-carbonitrile]",< 1 µM,< 1 µM
"Cc1noc(C)c1-c1cnc2c(-c3ccc(C(=O)O)cc3)cn(C(c3ccccn3)C3CCCC3)c2c1 (centres unmarked) [P-0995, 4-[1-[cyclopentyl(2-pyridyl)methyl]-6-(3,5-dimethylisoxazol-4-yl)pyrrolo[3,2-b]pyridin-3-yl]benzoic acid]",< 1 µM,< 1 µM
"CC[C@H](c1ccccn1)n1cc(-c2ccc(C(=O)OC)cc2)c2ncc(-c3c(C)noc3C)cc21 [P-0959, methyl 4-[6-(3,5-dimethylisoxazol-4-yl)-1-[(1R)-1-(2-pyridyl)propyl]pyrrolo[3,2-b]pyridin-3-yl]benzoate]",< 1 µM,< 1 µM
"Cc1noc(C)c1-c1cnc2c(C#N)cn(C(c3ccccc3)c3ccccn3)c2c1 (centres unmarked) [P-0940, 6-(3,5-dimethylisoxazol-4-yl)-1-[phenyl(2-pyridyl)methyl]pyrrolo[3,2-b]pyridine-3-carbonitrile]",< 1 µM,< 1 µM
"Cc1ccc(-c2cn(C(c3ccccc3)c3ccccn3)c3cc(-c4c(C)noc4C)ccc23)cn1 (centres unmarked) [P-1041, 3,5-dimethyl-4-[3-(6-methyl-3-pyridyl)-1-[phenyl(2-pyridyl)methyl]indol-6-yl]isoxazole]",< 1 µM,< 1 µM
"Cc1noc(C)c1-c1cnc2c(I)cn(Cc3ccccc3F)c2c1 [P-0924, 4-[1-[(2-fluorophenyl)methyl]-3-iodo-pyrrolo[3,2-b]pyridin-6-yl]-3,5-dimethyl-isoxazole]",< 1 µM,< 1 µM
"Cc1noc(C)c1-c1ccc2c(-c3cnn(CC(F)(F)F)c3)cn(C(c3ccccc3)c3ccccn3)c2c1 (centres unmarked) [P-1046, 3,5-dimethyl-4-[1-[phenyl(2-pyridyl)methyl]-3-[1-(2,2,2-trifluoroethyl)pyrazol-4-yl]indol-6-yl]isoxazole]",< 1 µM,< 1 µM
"Cc1noc(C)c1-c1cnc2c(-c3ccc(P(=O)(O)O)cc3)cn(C(C)c3ccccc3)c2c1 (centres unmarked) [P-0928, [4-[6-(3,5-dimethylisoxazol-4-yl)-1-(1-phenylethyl)pyrrolo[3,2-b]pyridin-3-yl]phenyl]phosphonic acid]",1 to 10 µM,< 1 µM
"Cc1noc(C)c1-c1cnc2c(-c3ccc(C(=O)O)cc3)cn([C@H](c3ccccn3)C3CC3)c2c1 [P-0990, 4-[1-[(S)-cyclopropyl(2-pyridyl)methyl]-6-(3,5-dimethylisoxazol-4-yl)pyrrolo[3,2-b]pyridin-3-yl]benzoic acid]",< 1 µM,< 1 µM
"CC[C@@H](c1ccccn1)n1cc(-c2ccc(C(=O)O)c(F)c2)c2ncc(-c3c(C)noc3C)cc21 [P-1022, 4-[6-(3,5-dimethylisoxazol-4-yl)-1-[(1S)-1-(2-pyridyl)propyl]pyrrolo[3,2-b]pyridin-3-yl]-2-fluoro-benzoic acid]",< 1 µM,< 1 µM
"COC(=O)c1ccc(-c2cn(Cc3cccc(OC)n3)c3cc(-c4c(C)noc4C)cnc23)cc1 [P-0930, methyl 4-[6-(3,5-dimethylisoxazol-4-yl)-1-[(6-methoxy-2-pyridyl)methyl]pyrrolo[3,2-b]pyridin-3-yl]benzoate]",1 to 10 µM,< 1 µM
"COC(=O)c1ccc(-c2cn(CC3(C)CCCCC3)c3cc(-c4c(C)noc4C)cnc23)cc1 [P-0914, methyl 4-[6-(3,5-dimethylisoxazol-4-yl)-1-[(1-methylcyclohexyl)methyl]pyrrolo [3,2-b]pyridin-3-yl]benzoate]",1 to 10 µM,< 1 µM
"Cc1noc(C)c1-c1cnc2c(-c3ccc(C4(C(=O)O)CC4)cc3)cn([C@H](c3ccccn3)C3CC3)c2c1 [P-1032, 1-[4-[1-[(S)-cyclopropyl(2-pyridyl)methyl]-6-(3,5-dimethylisoxazol-4-yl)pyrrolo[3,2-b]pyridin-3-yl]phenyl]cyclopropanecarboxylic acid]",< 1 µM,< 1 µM
"Cc1ccc(-c2cn([C@@H](C)c3ccccn3)c3cc(-c4c(C)noc4C)cnc23)cc1C(=O)O [P-0999, 5-[6-(3,5-dimethylisoxazol-4-yl)-1-[(1S)-1-(2-pyridyl)ethyl]pyrrolo[3,2-b]pyridin-3-yl]-2-methyl-benzoic acid]",< 1 µM,< 1 µM
"COC(=O)c1ccc(-c2cn(Cc3ccc(F)cn3)c3cc(-c4c(C)noc4C)cnc23)cc1 [P-0918, methyl 4-[6-(3,5-dimethylisoxazol-4-yl)-1-[(5-fluoro-2-pyridyl)methyl]pyrrolo[3,2-b]pyridin-3-yl]benzoate]",< 1 µM,< 1 µM
"COC(=O)c1ccc(-c2cn(Cc3cccc(C)n3)c3cc(-c4c(C)noc4C)cnc23)cc1 [P-0915, methyl 4-[6-(3,5-dimethylisoxazol-4-yl)-1-[(6-methyl-2-pyridyl)methyl]pyrrolo[3,2-b]pyridin-3-yl]benzoate]",< 1 µM,< 1 µM
"COc1ncc(-c2cn(C(c3ccccc3)c3ccccn3)c3cc(-c4c(C)noc4C)ccc23)cn1 (centres unmarked) [P-1039, 4-[3-(2-methoxypyrimidin-5-yl)-1-[phenyl(2-pyridyl)methyl]indol-6-yl]-3,5-dimethyl-isoxazole]",< 1 µM,< 1 µM
"Cc1noc(C)c1-c1cnc2c(-c3ccc(C(C)(C)C(=O)O)cc3)cn([C@@H](C)c3ccccn3)c2c1 [P-1021, 2-[4-[6-(3,5-dimethylisoxazol-4-yl)-1-[(1S)-1-(2-pyridyl)ethyl]pyrrolo[3,2-b]pyridin-3-yl]phenyl]-2-methyl-propanoic acid]",< 1 µM,< 1 µM
"CNS(=O)(=O)c1cccc(-c2cn([C@@H](C)c3ccccn3)c3cc(-c4c(C)noc4C)cnc23)c1 [P-0980, 3-[6-(3,5-dimethylisoxazol-4-yl)-1-[(1S)-1-(2-pyridyl)ethyl]pyrrolo[3,2-b]pyridin-3-yl]-N-methyl-benzenesulfonamide]",< 1 µM,< 1 µM
"COC(=O)c1ccc(-c2cn([C@@H](C)c3ccccn3)c3cc(-c4c(C)noc4C)cnc23)s1 [P-1006, methyl 5-[6-(3,5-dimethylisoxazol-4-yl)-1-[(1S)-1-(2-pyridyl)ethyl]pyrrolo[3,2-b]pyridin-3-yl]thiophene-2-carboxylate]",< 1 µM,< 1 µM
"Cc1noc(C)c1-c1cnc2c(I)cn(C(c3ccccc3)c3ccccn3)c2c1 (centres unmarked) [P-0906, 4-[3-iodo-1-[phenyl(2-pyridyl)methyl]pyrrolo[3,2-b]pyridin-6-yl]-3,5-dimethyl-isoxazole]",< 1 µM,< 1 µM
